Data as given in US9610294B2, “Methods and compositions for the treatment of fluid accumulation in and/or under the retina” (UNIVERSITE PARIS DESCARTES, priority 2010, dated 2017).
Where two headings read alike, the source gives them in different places.

Assays:
[1] = tested on: ENaC-α; assay: ENaC-α expression (real-time PCR, western blot) in rat RMG primary cultures and retinal explants; format: cell-based; settings: for aldosterone-induced increase in ENaC-α subunit transcripts in presence of antagonist: 10 nM aldosterone plus 1 µM antagonist, 24 hrs
Protocol: (§1) Rat RMG cells were obtained as described (deKozak, Y., Naud, M. C., Bellot, J., Faure, J. P., and Hicks, D. (1994) Differential tumor necrosis factor expression by resident retinal cells from experimental uveitis-susceptible and -resistant rat strains. J Neuroimmunol 55, 1-9). Briefly, rats at postnatal (PN) day 17 (when RMG cells are mature) were sacrificed and eyes enucleated. Intact eyeballs were maintained in DMEM overnight at room temperature in the dark, and then incubated 45 min with 2 mg/ml trypsin/collagenase I at 37° C. The neural retinas were separated from the lens and vitreous, cut into small fragments and plated in Petri dishes containing DMEM supplemented with 10% FCS, 100 units/ml penicillin, 100 µg/ml streptomycin, and 0.2% amphotericin B. Cultures were maintained at 37° C. in a humidified atmosphere containing 5% CO2. After 5 to 6 days, the cultures were washed extensively with medium so that only a strongly adherent flat cell population remained.
(§2) Müller cells were seeded in 6-well tissue culture plates (Becton Dickinson, Le Pont de Claix, France). Rat PN17 RMG cells were maintained in their initial Petri dishes. Sub confluent (80%) cells were incubated in media supplemented with 10% steroid-free (charcoal treated) FCS for 24 hrs. Corticosteroid (Sigma-Aldrich, Saint Quentin Fallavier, France) treatments were then applied respectively for a further 24 hrs: 10 nM aldosterone, 10 nM aldosterone plus 1).IM RU38486 (GR-specific antagonist), 10 nM aldosterone plus 1 µM RU26752 (MR-specific antagonist) or 1 µM dexamethasone. The steroids were previously dissolved in 2% steroid-free FCS media containing 0.1% ethanol. Control cells were treated with 0.1% ethanol in media.
(§3) After enucleation, rat retinas were isolated immediately under aseptic conditions and cut into 4 pieces. They were then transferred onto a Cyclopore 0.2).Im polycarbonate membrane (Whatman, Maidstone, England), and flatmounted with the vitreal side up. The support membranes were placed in 6-well tissue culture plates containing 2 ml DMEM supplemented with 10% steroid-free FCS, 1% penicillin-streptomycin and 0.1% amphotericin B. Explants were treated with corticosteroids as described for cultured cells. Similarly, the dose-dependent effect of aldosterone (0.1-100 nM) was analyzed on retinal explants in separate experiments.
(§4) Total RNA was isolated from the treated RMG cells and retinal explants using RNeasy Mini Kit (Qiagen, Courtaboeuf, France). First-strand cDNA was synthesized after DNase I (Qiagen) treatment using random primers (Invitrogen) and superscript II reverse transcriptase (Invitrogen). Transcript levels of ENaC-a, Kir4.1 and AQP4 were analyzed by real-time PCR performed in 7500 Real-Time PCR System (Applied Biosystems, Foster City, Calif., USA) with either TaqMan® (Applied Biosystems) or SYBR® Green (Invitrogen, Cergy Pontoise, France) detection. The 18S was used as internal control.
(§5) Retinal explants were homogenized in Np40 buffer in the presence of protease inhibitors. The protein concentration was determined by the Bradford method. Equal amounts of protein (12 .ug) were separated on Novex® 4%-12% Tris-Glycine gel (Invitrogen), transferred to nitrocellulose, and the blots were incubated with primary antibodies at 4° C. overnight. The membranes were washed, incubated with horse radish peroxidase conjugated goat anti-rabbit IgG (1:3000, Vector, AbCys, Paris, France) for 1 hr at room temperature, and developed using ECL Plus western blotting detection reagents (GE healthcare, Orsay, France). The j3-actin was used as internal control. The following primary antibodies were used: rabbit anti-alpha ENaC (1:500, Abcam, Cambridge, Mass., USA), rabbit anti-Kir4.1 (1:400, Alomone Labs, Jerusalem, Israel), rabbit anti-AQP4 (1:750, Millipore, St Quentin en Yvelines, France) and rabbit anti-j3-actin (1:1000, Abcam)

[2] = tested on: Kir4.1; assay: Kir4.1 expression (real-time PCR, western blot) in rat RMG primary cultures and retinal explants; format: cell-based; settings: for aldosterone-induced Kir4.1 up-regulation in presence of antagonist: 10 nM aldosterone plus 1 µM antagonist, 24 hrs
Protocol: as §1, §2, §3, §4, §5

[3] = tested on: AQP4; assay: AQP4 expression (real-time PCR, western blot) in rat RMG primary cultures and retinal explants; format: cell-based; settings: for aldosterone induction of AQP4 mRNA in presence of antagonist: 10 nM aldosterone plus 1 µM antagonist, 24 hrs
Protocol: as §1, §2, §3, §4, §5

[4] = tested on: AQP4; assay: AQP4 mRNA expression in RMG cells (Example 2); format: cell-based
Excerpt: We have performed several experiments.

[5] = tested on: retina; assay: Intraocular injection in Brown Norway rats (gain of function mutation in the MR gene): CSCR-like retinal pathology; format: in vivo; settings: FIGS. 1 and 2
[6] = tested on: sub retinal and/or intra retinal fluid; assay: Oral eplerenone in patients with CSCR or chronic diffuse epitheliopathy; format: in vivo, human; settings: for recurrence: at 6 months
Excerpt: Patients with non-resolutive or chronic diffuse epitheliopathy presenting with macular fluid accumulation have been treated with oral eplerenone, a specific MR antagonist. […] On the contrary, 4 months later and at 1 week before treatment, the amount of fluid had accumulated. […] They have a long history of recurrent CSCR on both eyes. In their left eye (OS), they present a macular edema with sub retinal fluid and retinal cysts. The left eye vision is reduced to 1/10 and the edema is chronic since more than 2 years. They have been treated with eplerenone 25 mg/day for 8 days and then 50 mg/days for 3 month. […] Moreover, vision in the left eye recovered to 6/10. No recurrence was observed on none of the eyes even at 6 months.

[7] = tested on: retina; assay: Intravitreal spironolactone in GK diabetic rats: retinal histology; format: in vivo, Goto-Kakizaki (GK) rats
Protocol: Goto-Kakizaki (GK) rats have been used as model for diabetic retinopathy. GK rats (Taconic Europe, Denmark), a Wistar non-obese model of Non-Insulin Dependent type 2 Diabetes were used at different ages of hyperglycemia. Glycemia was measured using Accutrend GC and Accu-check compact equipments (Roche) and plasma glucose >250 mg/dl was considered as diabetic state. […] Controls were selected from age-matched non-diabetic rats and with plasma glucose <150 mg/dl. […] 18 months diabetic rats were treated with intravitreous injections (1 μM) at day 1,3,5 and animals were re tested for ERGs 24 hrs after each injection. 24 hrs after the third injection, animals were sacrificed and the retina were analyzed using semi-thin sections.

[8] = tested on: retina; assay: Intravitreal spironolactone in GK diabetic rats: electroretinograms (ERG); format: in vivo, Goto-Kakizaki (GK) rats; settings: 18 months diabetic GK rats, intravitreous 1 μM at day 1,3,5; 24 hrs after last injection, FIG. 7
Protocol: In 18 months-old GK rats, electroretinogramms were preformed (ERG).
18 months diabetic rats were treated with intravitreous injections (1 μM) at day 1,3,5 and animals were re tested for ERGs 24 hrs after each injection.

[9] = 18 months GK rats, 3 intravitreous injections 1 μM, vs vehicle, FIG. 8
[10] = GK diabetic rats, intraocular, conclusion
[11] = GK rats, 1 μM final in the vitreous, 24 hrs after injection, FIG. 6

## CCC[C@@H]1CC2=CC(=O)CC[C@]2(C)[C@H]2CC[C@@]3(C)[C@@H](CC[C@@]34CCC(=O)O4)[C@H]12 [RU26752]
[1]
  aldosterone-induced increase in ENaC-α subunit transcripts in presence of antagonist: inhibited
[1]; western blot, retinal explants
  aldosterone-induced ENaC protein in presence of MR antagonist: not reduced
[2]
  aldosterone-induced Kir4.1 up-regulation in presence of antagonist: weaker (or no) effect
[2]; western blot
  aldosterone-induced Kir4.1 protein in presence of MR antagonist: reduced
[3]
  aldosterone induction of AQP4 mRNA in presence of antagonist: fully suppressed
[3]; western blot
  aldosterone-induced AQP4 protein in presence of MR antagonist: blocked
[4]
  aldosterone induction of AQP4 mRNA on co-administration of MR antagonist: completely blocks the induction

## CC#C[C@]1(O)CC[C@H]2[C@@H]3CCC4=CC(=O)CCC4=C3[C@@H](c3ccc(N(C)C)cc3)C[C@@]21C [RU38486]
[1]
  aldosterone-induced increase in ENaC-α subunit transcripts in presence of antagonist: inhibited
[2]
  aldosterone-induced Kir4.1 up-regulation in presence of antagonist: fully efficient to reduce it
[3]
  aldosterone induction of AQP4 mRNA in presence of antagonist: reduces somehow

## C[C@]12C[C@H](O)[C@H]3[C@@H](CCC4=CC(=O)CC[C@@]43C)[C@@H]1CC[C@@H]2C(=O)CO [corticosterone]
[5]
  retinal pathology after intraocular injection: develop a retinal pathology very close to CSCR

## COC(=O)[C@@H]1CC2=CC(=O)CC[C@]2(C)[C@@]23O[C@@H]2C[C@@]2(C)[C@@H](CC[C@@]24CCC(=O)O4)[C@H]13 [eplerenone, Pregn-4-ene-7,21-dicarboxylic acid, 9,11-epoxy-17-hydroxy-3-oxo-,γ-lactone, methyl ester, (7α,11α,17β)]
[6]; FIG. 3 patient, CSCR unresolved for 4 months, 25 mg/day orally for 8 days
  sub retinal fluid: striking reduction
[6]; FIG. 3 patient, treatment discontinued after 4 weeks
  recurrence: did not show any recurrence
[6]; FIG. 3 patient, then 50 mg/day for 8 days, after 2 weeks of treatment
  sub retinal fluid: almost complete resolution
[6]; FIG. 4 patient, chronic CSCR, 25 mg/day for 8 days then 50 mg/day, 15 days after treatment
  sub retinal fluid: complete resolution
[6]; FIG. 4 patient, chronic CSCR, 15 days after treatment
  macular cysts: total resolution
[6]; FIG. 4 patient, both eyes
  recurrence: No recurrence
[6]; FIG. 4 patient, reduced to 1/10 before treatment
  vision in the left eye: 6/10
[6]; patients, oral eplerenone
  kinetics of efficacy: as early as the first week of use
[6]; patients, oral eplerenone, FIGS. 3 and 4
  regression of sub retinal and/or intra retinal fluid: very rapid and efficient regression

## CC(=O)S[C@@H]1CC2=CC(=O)CC[C@]2(C)[C@H]2CC[C@@]3(C)[C@@H](CC[C@@]34CCC(=O)O4)[C@H]12 [spironolactone, 17-hydroxy-7α-mercapto-3-oxo-17α-pregn-4-ene-21-carboxylic acid γ-lactone acetate]
[7]; [9]
  edema in inner/outer (IS/OS) segments and outer nuclear layer (ONL): decreased
  vasodilation in the choriocapillaries: reduced
[7]; [10]
  formation of outer segments: improves
  retinal edema: efficiently reduces
[7]; [11]
  fluid accumulation in the outer nuclear layer (photoreceptor layer): have decreased
  thickness of the outer retina: decreased
[8]
  ERG b-wave after treatment compared to before treatment: significantly increased

## C[C@]12C=CC(=O)C=C1CC[C@H]1[C@@H]3C[C@@H](O)[C@](O)(C(=O)CO)[C@@]3(C)C[C@H](O)[C@@]12F [triamcinolone]
[4]
  expression of the water channel AQP4: reduces the expression of AQP4
[4]; listed as triamcinolone acetonide
  expression of the water channel AQP4: same effect as a MR antagonist
